Assay results published in patent US12583851B2, “Heteroaryl-substituted pyrazine derivatives as pesticides” (Elanco Animal Health GmbH, priority 2019, dated 2026).

Columns and labels:
Format in all cases: in vivo
[1] = tested on: Rhipicephalus (Boophilus) microplus larvae (strain Parkhurst, resistant against synthetic pyrethroids); assay: Rhipicephalus (Boophilus) microplus in-vitro contact test, larval cattle tick; conditions: after 48 hours, read-out: efficacy (larvae dead or moribund); for pest or weed control at 1 µg/cm2, 100 g/ha: 1 μg/cm^2 (=100 g/ha); for pest or weed control at 5 µg/cm2, 500 g/ha: 5 μg/cm^2 (=500 g/ha)
Protocol: Rhipicephalus (Boophilus) microplus—In-Vitro Contact Tests Larval Cattle Tick (Strain Parkhurst, Resistant Against Synthetic Pyrethroids)
9 mg compound is solved in 1 mL acetone and diluted with acetone to the desired concentration. […] the test solution is filled in 25 mL glass test tubes and homogeneously distributed on the inner walls by rotation and tilting on a shaking device (2 h at 30 rpm). With a compound concentration of 900 ppm, an inner surface of 44.7 cm^2 and a homogeneous distribution, a dose of 5 μg/cm^2 is achieved.
After the solvent has evaporated, each test tube is filled with 20-50 cattle tick larvae (Rhipicephalus microplus), closed with a perforated lid and incubated in a horizontal position at 85% relative humidity and 27° C. in an incubator. After 48 hours efficacy is determined. The larvae are patted on the ground of the tubes and negative geotactic behaviour is recorded.
An efficacy of 100% means all larvae are dead or moribund; 0% means no larvae are dead or moribund.

[2] = tested on: larvae of the banded cucumber beetle (Diabrotica balteata); assay: Diabrotica balteata spray test; conditions: 168 h, after 7 days, read-out: efficacy (seedling growth); for pest or weed control at 6.4 µg/disc, 20 g/ha: 20 g/ha (=6.4 μg/well); for pest or weed control at 32 µg/disc, 100 g/ha: 100 g/ha (=32 μg/well)
Protocol: Diabrotica balteata—Spray Test
Solvent: 78.0 parts by weight of acetone • • 1.5 parts by weight of dimethylformamide
(§1) Emulsifier: alkylarylpolyglycol ether
(§2) To produce a suitable preparation of active compound, 1 part by weight of active compound is mixed with the stated amount of solvent, and the concentrate is diluted with water, containing an emulsifier concentration of 1000 ppm, to the desired concentration. Further test concentrations are prepared by dilution with emulsifier containing water.
Soaked wheat seeds (Triticum aestivum) are placed in a multiple well plate filled with agar and some water and are incubated for 1 day to germinate (5 seeds per well). The germinated wheat seeds are sprayed with a test solution containing the desired concentration of the active ingredient. Afterwards each unit is infected with 10-20 larvae of the banded cucumber beetle (Diabrotica balteata).
After 7 days efficacy in % is determined. 100% means all the seedlings have grown up like in the untreated, uninfected control; 0% means none of the seedlings have grown.

[3] = tested on: fall armyworm larvae (Spodoptera frugiperda); assay: Spodoptera frugiperda spray test; conditions: 168 h, maize leaf sections, after 7 days
Protocol: Spodoptera fruaiperda—Spray Test
Solvent: 78.0 parts by weight acetone • 1.5 parts by weight dimethylformamide
as §1
as §2, with “solvents” for “solvent,”, “and” for “and the concentrate”
Maize (Zea mays) leaf sections are sprayed with a preparation of the active ingredient of the desired concentration. Once dry, the leaf sections are infested with fall armyworm larvae (Spodoptera frugiperda).
After 7 days mortality in % is determined. 100% means all caterpillars have been killed and 0% means none of the caterpillars have been killed.

Row | Structure (SMILES) | pest or weed control at 1 µg/cm2, 100 g/ha [1] [%] | pest or weed control at 5 µg/cm2, 500 g/ha [1] [%] | pest or weed control at 6.4 µg/disc, 20 g/ha [2] [%] | pest or weed control at 32 µg/disc, 100 g/ha [2] [%] | mortality at 100 g/ha [3] [%]
1 | CC(NC(=O)c1cc(C#N)cc(C(F)(F)F)c1)c1nccnc1-n1cc(C#N)cn1 (racemic) [Example I-115, (rac)-3-Cyano-N-{1-[3-(4-cyano-1H-pyrazol-1-yl)pyrazin-2-yl]ethyl}-5-(trifluoromethyl)benzamide] | 100 | 100 | 100 | 100 | 100
2 | CC(NC(=O)c1cc(Cl)cc(C(F)(F)F)c1)c1nccnc1-c1ccc(C(F)(F)F)cn1 (racemic) [Example I-46, (rac)-3-Chloro-5-(trifluoromethyl)-N-[1-{3-[5-(trifluoromethyl)pyridin-2-yl]pyrazin-2-yl}ethyl]benzamide] | 100 | 100 | – | 100 | 100
3 | CC(NC(=O)c1cc(C(F)(F)F)cc(C(F)(F)F)c1)c1nccnc1-c1ncc(C(=O)N(C)C)s1 (racemic) [Example I-69, (rac)-2-(3-{1-[3,5-Bis(trifluoromethyl)benzamido]ethyl}pyrazin-2-yl)-N,N-dimethyl-1,3-thiazole-5-carboxamide] | 100 | 100 | 100 | 100 | 100
4 | CC(NC(=O)c1cc(C#N)cc(OC(F)(F)F)c1)c1nccnc1-n1cc(C#N)cn1 (racemic) [Example I-116, (rac)-3-Cyano-N-{1-[3-(4-cyano-1H-pyrazol-1-yl)pyrazin-2-yl]ethyl}-5-(trifluoromethoxy)benzamide] | 90 | 100 | 100 | 100 | 100
5 | CC(NC(=O)c1cc(C(F)(F)F)cc(C(F)(F)F)c1)c1nccnc1-n1cc(C(=O)N2CCOCC2)cn1 (racemic) [Example I-90, N-[(rac)-1-{3-[4-(Morpholine-4-carbonyl)-1H-pyrazol-1-yl]pyrazin-2-yl}ethyl]-3,5-bis(trifluoromethyl)benzamide] | 100 | 100 | – | 100 | 100
6 | CC(NC(=O)c1cc(OC(F)F)cc(OC(F)F)c1)c1nccnc1-c1ncc(C(=O)N(C)CC2CC2)s1 (racemic) [Example I-143, (rac)-2-(3-{1-[3,5-Bis(difluoromethoxy)benzamido]ethyl}pyrazin-2-yl)-N-(cyclopropylmethyl)-N-methyl-1,3-thiazole-5-carboxamide] | 100 | 90 | 100 | 100 | 100
7 | CC(NC(=O)c1cc(Br)cc(C(F)(F)F)c1)c1nccnc1-c1ncc(C(=O)N2C[C@@H](C)O[C@@H](C)C2)s1 (mixture of isomers) [Example I-120, (rac)-3-Bromo-N-[1-(3-{5-[(cis)-2,6-dimethylmorpholine-4-carbonyl]-1,3-thiazol-2-yl}pyrazin-2-yl)ethyl]-5-(trifluoromethyl)benzamide] | 100 | 100 | – | 100 | 100
8 | Cc1cnc(C(C)NC(=O)c2cc(C(F)(F)F)cc(C(F)(F)F)c2)c(-c2ncc(C(=O)N(C)CC#N)s2)n1 (racemic) [Example I-124, (rac)-2-(3-{1-[3,5-Bis(trifluoromethyl)benzamido]ethyl}-6-methylpyrazin-2-yl)-N-(cyanomethyl)-N-methyl-1,3-thiazole-5-carboxamide] | 100 | 100 | 100 | 100 | 100
9 | CC(NC(=O)c1cc(Br)cc(OC(F)(F)F)c1)c1nccnc1-c1ncc(C(=O)N(C)CC#N)s1 (racemic) [Example I-75, (rac)-2-(3-{1-[3-Bromo-5-(trifluoromethoxy)benzamido]ethyl}pyrazin-2-yl)-N-(cyanomethyl)-N-methyl-1,3-thiazole-5-carboxamide] | 90 | 90 | – | 100 | 100
10 | CC(NC(=O)c1cc(Cl)cc(S(=O)(=O)C(F)(F)F)c1)c1nccnc1-n1cc(C#N)cn1 (racemic) [Example I-114, (rac)-3-Chloro-N-{1-[3-(4-cyano-1H-pyrazol-1-yl)pyrazin-2-yl]ethyl}-5-(trifluoromethanesulfonyl)benzamide] | 90 | 90 | – | 100 | 100
11 | CC(NC(=O)c1cc(C(F)(F)F)cc(C(F)(F)F)c1)c1nccnc1-n1cc(C(F)(F)F)cn1 (racemic) [Example I-92, (rac)-3,5-Bis(trifluoromethyl)-N-[1-{3-[4-(trifluoromethyl)-1H-pyrazol-1-yl]pyrazin-2-yl}ethyl]benzamide] | 100 | 100 | 100 | 100 | 100
12 | CC(NC(=O)c1cc(C(F)(F)F)cc(C(F)(F)F)c1)c1nccnc1-n1cc(C#N)cn1 (racemic) [Example I-100, N-{(rac)-1-[3-(4-Cyano-1H-pyrazol-1-yl)pyrazin-2-yl]ethyl}-3,5-bis(trifluoromethyl)benzamide] | 100 | 100 | 100 | 100 | 100
13 | CC(NC(=O)c1cc(Br)cc(C(F)(F)F)c1)c1nccnc1-n1cc(C#N)cn1 (racemic) [Example I-113, (rac)-3-Bromo-N-{1-[3-(4-cyano-1H-pyrazol-1-yl)pyrazin-2-yl]ethyl}-5-(trifluoromethyl)benzamide] | 100 | 100 | 100 | 100 | 100
14 | CC(NC(=O)c1cc(Br)cc(OC(F)(F)F)c1)c1nccnc1-c1ncc(C(=O)N(C)CC2CC2)s1 (racemic) [Example I-76, (rac)-2-(3-{1-[3-Bromo-5-(trifluoromethoxy)benzamido]ethyl}pyrazin-2-yl)-N-(cyclopropylmethyl)-N-methyl-1,3-thiazole-5-carboxamide] | 100 | 100 | 100 | 100 | 100
15 | CC(NC(=O)c1cc(C(F)(F)F)cc(C(F)(F)F)c1)c1nccnc1-c1ncc(C(=O)N(C)CC2CC2)s1 (racemic) [Example I-51, (rac)-2-(3-{1-[3,5-Bis(trifluoromethyl)benzamido]ethyl}pyrazin-2-yl)-N-(cyclopropylmethyl)-N-methyl-1,3-thiazole-5-carboxamide] | 90 | 90 | 100 | 100 | 100
16 | CC(NC(=O)c1cc(Br)cc(OC(F)(F)F)c1)c1nccnc1-n1cc(C#N)cn1 (racemic) [Example I-102, (rac)-3-Bromo-N-{1-[3-(4-cyano-1H-pyrazol-1-yl)pyrazin-2-yl]ethyl}-5-(trifluoromethoxy)benzamide] | 90 | 90 | 100 | 100 | 100
